In patent US9371265B2, “Compositions and methods related to inhibitors of JAK kinase” (EP PHARMA, INC., priority 2012, dated 2016):

Experiments:
JAK3 = JAK3 (Homo sapiens, UniProt P52333); test: Constitutive JAK3 tyrosine phosphorylation in SU-DHL-1 cells (IP/Western blot); assay type: cell-based; set-up: cellular JAK3 and JAK2 tyrosine phosphorylation levels detected by Western blot analysis; endogenous in cells; conditions: 20 μM EP009, 12 hours, vs vehicle
From the text: FIGS. 6A-6B. EP009 treatment disrupts constitutive JAK3/STAT3 pathway activation and down-regulates CD30 cell surface expression in human ALCL cells. (A) Kit225 (lane a), SUP-M2 (lane b), Karpas299 (lane c), DEL (lane d) and SU-DHL-1 (lane e) total cell lysates were separated by 7.5% SDS-PAGE (upper panel) or were immunoprecipitated (IP) with JAK3 antibodies (lower panel) and separated on 7.5% SDS-PAGE, and then subjected to Western blot (WB) analysis with the indicated antibodies. (B) SU-DHL-1 cells were treated with vehicle (PBS; lane a) or increasing amounts of EP009 (0-40 μM; lanes b-e) for 12 hours. Cells were then lysed, clarified, and immunoprecipitated (IP) with anti-JAK3 (α-JAK3), and subjected to Western blot (WB) analysis with anti-phosphotyrosine (α-pY). Blots were stripped and reprobed with α-JAK3 to verify equivalent protein loading. (C) SU-DHL-1 cells were treated with vehicle (PBS) or increasing amounts of EP009 (0-40 μM) for 12 hours. […] Values represent pSTAT mean fluorescence intensity (MFI) normalized to corresponding GAPDH MFI, while error bars represent the standard deviation (n=2). Statistical significance was determined using Student's t-test. […] Cells were then analyzed by flow cytometry for CD30 expression. […]

caspase 3 = test: Caspase 3 activation in SU-DHL-1 cells (Luminex multiplex); assay type: cell-based, human; conditions: 24 hours, dose-dependent
Procedure: FIGS. 7A-7C. EP009 reduces ALCL cell viability through induction of caspase 3 mediated apoptosis. (A) SUP-M2, SU-DHL-1 or H2228 cells were cultured with increasing amounts of EP009 (0-10 μM) for 72 hours and cell viability measured with the MTS tetrazolium salt assay. Values represent mean absorbance (OD490-OD650 nm) normalized to vehicle (PBS) treated control cells, while error bars represent the standard deviation (n=3). (B) SU-DHL-1 cells were treated with vehicle (PBS) or increasing amounts of EP009 (0-50 μM) for 24 hours. Cells were then lysed, clarified, and subjected to Luminex multiplex analysis to detect activated caspase 3 and (C) cleaved PARP. Values represent MFI normalized to corresponding GAPDH MFI, while error bars represent the standard deviation (n=2). Representative data from three independent experiments are shown. Statistical significance was determined using Student's t-test. (*, p<0.05).
The MILLIPLEX MAP 8-plex Multi-Pathway Signaling Phosphoprotein kit (Millipore) was used to detect phosphorylated ERK1/2 (Thr185/Tyr187), STAT3 (Ser727), JNK1/2 (Thr183/Tyr185), p70 S6 kinase (Thr412), IκBα (Ser32), STAT5A/B (Tyr694/699), CREB (Ser133), and p38 (Thr180/Tyr182). The MILLIPLEX MAP 5-plex STAT Phosphoprotein kit (Millipore) was used to detect phosphorylated STAT1 (Tyr701), STAT2 (Tyr690), STAT3 (Tyr705), STAT5A/B (Tyr694/699), and STAT6 (Tyr641). […]

Chain of JAK3 (P52333 whole entry): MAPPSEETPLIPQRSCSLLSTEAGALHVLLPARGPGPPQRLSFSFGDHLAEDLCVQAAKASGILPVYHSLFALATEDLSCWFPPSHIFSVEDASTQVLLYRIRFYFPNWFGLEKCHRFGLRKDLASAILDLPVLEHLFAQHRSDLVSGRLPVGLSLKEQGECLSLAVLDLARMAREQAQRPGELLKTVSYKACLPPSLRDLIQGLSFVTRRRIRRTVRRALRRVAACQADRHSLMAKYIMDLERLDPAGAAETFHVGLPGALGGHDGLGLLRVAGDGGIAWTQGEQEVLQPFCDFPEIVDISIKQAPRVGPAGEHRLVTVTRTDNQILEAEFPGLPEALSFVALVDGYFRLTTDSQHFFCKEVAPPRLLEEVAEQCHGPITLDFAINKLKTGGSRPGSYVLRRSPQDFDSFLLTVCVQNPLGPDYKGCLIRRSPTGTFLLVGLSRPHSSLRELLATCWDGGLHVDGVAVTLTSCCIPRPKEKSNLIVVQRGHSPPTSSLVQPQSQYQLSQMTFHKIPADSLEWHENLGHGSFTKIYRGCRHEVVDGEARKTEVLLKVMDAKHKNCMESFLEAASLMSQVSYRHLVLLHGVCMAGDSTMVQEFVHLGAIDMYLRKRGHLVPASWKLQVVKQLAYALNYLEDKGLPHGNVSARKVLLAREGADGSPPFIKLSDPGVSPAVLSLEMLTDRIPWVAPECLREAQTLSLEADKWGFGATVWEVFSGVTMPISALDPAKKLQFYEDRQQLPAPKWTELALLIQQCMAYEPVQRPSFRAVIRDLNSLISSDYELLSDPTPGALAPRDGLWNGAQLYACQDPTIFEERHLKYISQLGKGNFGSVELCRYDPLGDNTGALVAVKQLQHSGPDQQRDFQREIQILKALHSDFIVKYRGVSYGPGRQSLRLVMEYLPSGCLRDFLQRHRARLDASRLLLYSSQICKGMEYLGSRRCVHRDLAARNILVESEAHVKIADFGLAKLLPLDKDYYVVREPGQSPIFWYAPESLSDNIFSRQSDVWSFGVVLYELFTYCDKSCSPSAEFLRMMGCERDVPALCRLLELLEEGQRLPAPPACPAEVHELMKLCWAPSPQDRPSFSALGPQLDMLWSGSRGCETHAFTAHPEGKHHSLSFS

SMILES: C=C1CCCCCCCCCC(CO)C1=O (centres unmarked) [EP009, 2-(Hydroxymethyl)-12-methylenecyclododecanone]
- decrease in JAK3 tyrosine phosphorylation levels (JAK3): 70%
- caspase-3 activation (caspase 3): increased
